Results: PubChem BioAssay AID248 (DTP/NCI, 2004)
“And” between values parts separate entries of the source, which are not always exact repeats. Identical values can stand only once. Inconclusive results and toxic doses are left out. Rule as the data show it: active = T/C of 150% or more; inactive = T/C below 125%.

System: L1210 leukemia ip in BDF1 mice, survival T/C
Assay: NCI In Vivo Anticancer Drug Screen. Data for tumor model L1210 Leukemia (intraperitoneal) in B6D2F1 (BDF1) mice
Details: endpoint: mean survival time, higher = longer survival
In short: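 Transplantable tumor model; survival measured in treated vs vehicle control mice. Value = treated/control.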

[1] = dose: 100.0 mg/kg/injection, schedule: Q01DX009 (ip), vehicle: saline with Tween-80
[2] = dose: 200.0 mg/kg/injection, schedule: Q01DX009 (ip), vehicle: saline with Tween-80
[3] = dose: 100.0 mg/kg/injection, schedule: Q01DX001 (ip), vehicle: carboxymethylcellulose (CMC)
[4] = dose: 200.0 mg/kg/injection, schedule: Q01DX001 (ip), vehicle: carboxymethylcellulose (CMC)
[5] = dose: 400.0 mg/kg/injection, schedule: Q01DX001 (ip), vehicle: carboxymethylcellulose (CMC)
[6] = dose: 100.0 mg/kg/injection, schedule: Q04DX002 (ip), vehicle: saline
[7] = dose: 100.0 mg/kg/injection, schedule: Q01DX009 (ip), vehicle: Klucel (hydroxypropylcellulose) (HPC)
[8] = dose: 100.0 mg/kg/injection, schedule: Q04DX003 (ip), vehicle: Klucel (hydroxypropylcellulose) (HPC)
[9] = dose: 200.0 mg/kg/injection, schedule: Q01DX009 (ip), vehicle: Klucel (hydroxypropylcellulose) (HPC)
[10] = dose: 200.0 mg/kg/injection, schedule: Q04DX003 (ip), vehicle: Klucel (hydroxypropylcellulose) (HPC)
[11] = dose: 400.0 mg/kg/injection, schedule: Q04DX003 (ip), vehicle: Klucel (hydroxypropylcellulose) (HPC)
[12] = dose: 100.0 mg/kg/injection, schedule: Q04DX002 (ip), vehicle: saline with Tween-80
[13] = dose: 200.0 mg/kg/injection, schedule: Q04DX002 (ip), vehicle: saline with Tween-80
[14] = dose: 400.0 mg/kg/injection, schedule: Q01DX009 (ip), vehicle: Klucel (hydroxypropylcellulose) (HPC)

Measured: T/C

CC(=O)COc1ccccc1-c1ccccc1
inactive: [1] 97 % of control | [2] 101 % of control | dose: 400.0 mg/kg/injection, schedule: Q01DX009 (ip), vehicle: saline with Tween-80 100 % of control

COc1ccc(NC(=O)Oc2ccccn2)cc1
inactive: dose: 25.0 mg/kg/injection, schedule: Q01DX009 (ip), vehicle: carboxymethylcellulose (CMC) 92 % of control and 100 % of control | dose: 50.0 mg/kg/injection, schedule: Q01DX009 (ip), vehicle: carboxymethylcellulose (CMC) 93 % of control and 103 % of control | [3] 97 % of control | dose: 100.0 mg/kg/injection, schedule: Q04DX003 (ip), vehicle: carboxymethylcellulose (CMC) 93 % of control and 106 % of control | [4] 101 % of control | dose: 200.0 mg/kg/injection, schedule: Q04DX003 (ip), vehicle: carboxymethylcellulose (CMC) 97 % of control and 113 % of control | [5] 113 % of control | dose: 400.0 mg/kg/injection, schedule: Q04DX003 (ip), vehicle: carboxymethylcellulose (CMC) 97 % of control and 108 % of control

CN(C)CCN(C)C(=O)C1C(c2ccccc2)C1c1ccccc1 (stereo unspecified)
inactive: dose: 12.5 mg/kg/injection, schedule: Q04DX002 (ip), vehicle: Klucel (hydroxypropylcellulose) (HPC) 100 % of control | dose: 25.0 mg/kg/injection, schedule: Q04DX002 (ip), vehicle: Klucel (hydroxypropylcellulose) (HPC) 100 % of control | dose: 50.0 mg/kg/injection, schedule: Q04DX002 (ip), vehicle: Klucel (hydroxypropylcellulose) (HPC) 87 % of control

c1cc(CCCc2ccncc2)ccn1
inactive: dose: 25.0 mg/kg/injection, schedule: Q04DX002 (ip), vehicle: saline 108 % of control | dose: 50.0 mg/kg/injection, schedule: Q04DX002 (ip), vehicle: saline 95 % of control | [6] 95 % of control

N#Cc1ccc(Cl)cc1.N#Cc1ccc(Cl)cc1.[Cl][Pt][Cl]
inactive: dose: 6.25 mg/kg/injection, schedule: Q04DX003 (ip), vehicle: water 109 % of control | dose: 12.5 mg/kg/injection, schedule: Q04DX003 (ip), vehicle: water 105 % of control | dose: 25.0 mg/kg/injection, schedule: Q04DX003 (ip), vehicle: water 107 % of control | dose: 50.0 mg/kg/injection, schedule: Q04DX003 (ip), vehicle: water 109 % of control

Cc1ccc(NC(=O)Nc2ccc(Cl)c(Cl)c2)c(C)c1
inactive: [7] 90 % of control | [8] 89 % of control | [9] 90 % of control | [10] 89 % of control | [11] 89 % of control

C[N+](C)(C)CC(O)CC#N (stereo unspecified)
inactive: dose: 12.5 mg/kg/injection, schedule: Q01DX009 (ip), vehicle: Klucel (hydroxypropylcellulose) (HPC) 98 % of control | dose: 25.0 mg/kg/injection, schedule: Q01DX009 (ip), vehicle: Klucel (hydroxypropylcellulose) (HPC) 96 % of control | dose: 50.0 mg/kg/injection, schedule: Q01DX009 (ip), vehicle: Klucel (hydroxypropylcellulose) (HPC) 93 % of control

Cc1ccc(NC(=O)CC#N)c(C)c1
inactive: dose: 50.0 mg/kg/injection, schedule: Q01DX009 (ip), vehicle: saline with Tween-80 95 % of control | [1] 113 % of control | [12] 101 % of control | [2] 113 % of control | [13] 101 % of control

CCNc1ncnc2c1cnn2C
inactive: dose: 100.0 mg/kg/injection, schedule: Q01DX001 (ip), vehicle: saline 95 % of control | dose: 200.0 mg/kg/injection, schedule: Q01DX001 (ip), vehicle: saline 103 % of control | dose: 400.0 mg/kg/injection, schedule: Q01DX001 (ip), vehicle: saline 114 % of control

CC(C)c1ccccc1OS(=O)(=O)c1ccccc1
inactive: dose: 100.0 mg/kg/injection, schedule: Q04DX003 (ip), vehicle: saline with Tween-80 91 % of control | dose: 200.0 mg/kg/injection, schedule: Q04DX003 (ip), vehicle: saline with Tween-80 95 % of control | dose: 400.0 mg/kg/injection, schedule: Q04DX003 (ip), vehicle: saline with Tween-80 98 % of control

CCN1CC2c3cc(OC)c(OC)cc3CC(c3ccccc3)C2C1 (stereo unspecified)
inactive: dose: 12.5 mg/kg/injection, schedule: Q01DX009 (ip), vehicle: saline with Tween-80 98 % of control | dose: 25.0 mg/kg/injection, schedule: Q01DX009 (ip), vehicle: saline with Tween-80 95 % of control

CNc1c2c(nc3ccccc13)CCCC2
inactive: dose: 1.25 mg/kg/injection, schedule: Q01DX009 (ip), vehicle: saline with Tween-80 93 % of control | dose: 1.25 mg/kg/injection, schedule: Q04DX003 (ip), vehicle: saline with Tween-80 97 % of control | dose: 2.5 mg/kg/injection, schedule: Q01DX009 (ip), vehicle: saline with Tween-80 91 % of control | dose: 2.5 mg/kg/injection, schedule: Q04DX003 (ip), vehicle: saline with Tween-80 108 % of control | dose: 5.0 mg/kg/injection, schedule: Q01DX009 (ip), vehicle: saline with Tween-80 89 % of control | dose: 5.0 mg/kg/injection, schedule: Q04DX003 (ip), vehicle: saline with Tween-80 102 % of control

CCCCCCCCCC(CC)(CCCCCCC)CCCCCCCC (stereo unspecified)
inactive: dose: 100.0 mg/kg/injection, schedule: Q01DX001 (ip), vehicle: saline with Tween-80 103 % of control | dose: 200.0 mg/kg/injection, schedule: Q01DX001 (ip), vehicle: saline with Tween-80 99 % of control | dose: 400.0 mg/kg/injection, schedule: Q01DX001 (ip), vehicle: saline with Tween-80 103 % of control

CCCCCCCCCCCCCCCCCCCC(=O)COS(C)(=O)=O
inactive: dose: 100.0 mg/kg/injection, schedule: Q04DX002 (ip), vehicle: Klucel (hydroxypropylcellulose) (HPC) 88 % of control | dose: 200.0 mg/kg/injection, schedule: Q04DX002 (ip), vehicle: Klucel (hydroxypropylcellulose) (HPC) 88 % of control | dose: 400.0 mg/kg/injection, schedule: Q04DX002 (ip), vehicle: Klucel (hydroxypropylcellulose) (HPC) 88 % of control

CCC[CH2][Sn]([S][Sn]([CH2]CCC)([c]1ccccc1)[c]1ccccc1)([c]1ccccc1)[c]1ccccc1
inactive: [12] 96 % of control | [13] 103 % of control

CSCc1ccc([N+](=O)[O-])cc1
inactive: [7] 103 % of control | [8] 101 % of control | [9] 103 % of control | [10] 106 % of control | [14] 116 % of control | [11] 95 % of control

COc1ccc(/C=N/NC(=O)/C=C/c2ccccc2)c(OC)c1
inactive: [7] 97 % of control | [9] 98 % of control | [14] 92 % of control

COc1ccc2c(c1)C(=O)CC(C)N2S(=O)(=O)c1ccc(C)cc1 (stereo unspecified)
inactive: dose: 18.75 mg/kg/injection, schedule: Q04DX002 (ip), vehicle: Klucel (hydroxypropylcellulose) (HPC) 95 % of control | dose: 37.5 mg/kg/injection, schedule: Q04DX002 (ip), vehicle: Klucel (hydroxypropylcellulose) (HPC) 113 % of control | dose: 75.0 mg/kg/injection, schedule: Q04DX002 (ip), vehicle: Klucel (hydroxypropylcellulose) (HPC) 103 % of control | dose: 150.0 mg/kg/injection, schedule: Q04DX002 (ip), vehicle: Klucel (hydroxypropylcellulose) (HPC) 98 % of control and 103 % of control | dose: 300.0 mg/kg/injection, schedule: Q04DX002 (ip), vehicle: Klucel (hydroxypropylcellulose) (HPC) 87 % of control

CCCCS(=O)/C=C\S(=O)CCCC (stereo unspecified)
inactive: [6] 117 % of control | dose: 200.0 mg/kg/injection, schedule: Q04DX002 (ip), vehicle: saline 106 % of control

O=P(O)(O)CCC(F)(F)C(F)(F)C(F)(F)C(F)(F)C(F)(F)C(F)(F)C(F)(F)F
inactive: dose: 75.0 mg/kg/injection, schedule: Q01DX001 (ip), vehicle: saline 96 % of control

Cc1ccc2c(c1)CCCN2C
inactive: dose: 50.0 mg/kg/injection, schedule: Q01DX009 (ip), vehicle: saline 96 % of control | dose: 100.0 mg/kg/injection, schedule: Q01DX009 (ip), vehicle: saline 95 % of control | dose: 100.0 mg/kg/injection, schedule: Q04DX003 (ip), vehicle: saline 100 % of control | dose: 200.0 mg/kg/injection, schedule: Q04DX003 (ip), vehicle: saline 94 % of control

COc1ccccc1/C=N/Nc1nnc(N/N=C/c2ccccc2OC)c2ccccc12
inactive: dose: 50.0 mg/kg/injection, schedule: Q01DX001 (ip), vehicle: carboxymethylcellulose (CMC) 107 % of control | [3] 103 % of control | [4] 101 % of control | [5] 103 % of control
